Measurements from patent US11246865B2 (priority 2017, dated 2022).
“And” between values parts separate entries of the source, which are not always exact repeats. Identical values can stand only once. “Also recorded” adds a separate entry of the source.

How the values were obtained:
[1] = rat, in vivo
[2] = Preclinical toxicity profile; assay type: in vivo
Description: The preclinical toxicity profile of DPI-125 was as expected for an opioid compound, with two positive exceptions.

[3] = Phase 1 study DPI-125.IV.001, safety of single intravenous bolus doses; assay type: in vivo, human
Procedure: Given this positive preclinical data, Good Laboratory Practice (GLP) Investigational New Drug (IND) enabling toxicology studies were performed. DPI-125 was tested in human subjects in a PK and safety study. DPI-125.IV.001, was a randomized, single-center, double-blind, placebo-controlled, dose escalating Phase 1 study. The primary objective was to evaluate the safety of single doses of DPI-125 administered by intravenous bolus infusion in normal healthy adult subjects. Male and female subjects between 18 and 55 years of age, inclusive, who were in good health and who were not taking any medications were eligible for enrollment. For each dose group, cohorts of 6 subjects were randomized to receive either placebo (n=1) or DPI-125 for Injection (n=5) as a single bolus dose of 5, 10, 20, or 50 μg/kg administered over 2 minutes. A final cohort received 25 μg/kg administered over 1 minute. For this first in human study, it was decided that 50 μg/kg should be the highest dose to be tested so the maximum tolerated dose was not determined.

[4] = Study 1: tolerance and cross-tolerance, tail pinch test (MPE); assay type: in vivo, rat; conditions: for MPE on Day 1: all animals, both dose points and both time points (20 and 30 min); for time to maximal/complete tolerance: b.i.d. s.c. dosing, morphine 5.0 mg/kg, DPI-125 1.0 mg/kg; for antinociceptive effect / tolerance in DPI-125 tolerant animals: tolerant to 1.0 mg/kg DPI-125 BID; for antinociceptive effect / tolerance in DPI-125 tolerant animals / antinociceptive effect / tolerance in morphine tolerant animals: challenge morphine 5.0 or DPI-125 1.0 mg/kg; for antinociceptive effect / tolerance in morphine tolerant animals: tolerant to 5.0 mg/kg morphine BID
[5] = Studies 2 and 3: antinociceptive ED50 in naive and tolerant animals, tail pinch test; assay type: in vivo, rat; conditions: for antinociceptive ED50: s.c.; for antinociceptive ED50 / ED50: 20 min tail pinch; for ED50: Rattus norvegicus, sc, 20 min
[6] = target: T1, delta receptor in the mouse vas deferens (Mus musculus, UniProt P32300); assay: Mouse vas deferens delta receptor agonism
T1 construct: from tissue; host or cells: mouse vas deferens

[7] = target: T2, delta receptor in the mouse brain (Mus musculus, UniProt P32300); assay: Mouse brain delta receptor agonism
T2 construct: from tissue; host or cells: mouse brain

[8] = rat, in vivo; remark: listed apart in the source
[9] = in vivo; conditions: rat
[10] = healthy adults, single IV bolus 5-50 μg/kg
[11] = DPI-125 tolerant animals, challenge dose 1 (day 7), 30 min
[12] = DPI-125 tolerant animals, challenge dose 1 (day 7), morphine 5.0 or DPI-125 1.0 mg/kg s.c., 20 min
[13] = DPI-125 tolerant animals, challenge dose 2 (day 7.25), 20 min
[14] = DPI-125 tolerant animals, challenge dose 2 (day 7.25), 30 min
[15] = DPI-125 tolerant animals, challenge dose 3 (day 8), 20 min
[16] = DPI-125 tolerant animals, challenge dose 3 (day 8), 30 min
[17] = DPI-125 tolerant animals, challenge dose 4 (day 8.25), 20 min
[18] = DPI-125 tolerant animals, challenge dose 4 (day 8.25), 30 min
[19] = morphine tolerant animals, challenge dose 1 (day 6), 30 min
[20] = morphine tolerant animals, challenge dose 1 (day 6), morphine 5.0 or DPI-125 1.0 mg/kg s.c., 20 min
[21] = morphine tolerant animals, challenge dose 2 (day 6.25), 20 min
[22] = morphine tolerant animals, challenge dose 2 (day 6.25), 30 min
[23] = morphine tolerant animals, challenge dose 3 (day 7), 20 min
[24] = morphine tolerant animals, challenge dose 3 (day 7), 30 min
[25] = morphine tolerant animals, challenge dose 4 (day 7.25), 20 min
[26] = morphine tolerant animals, challenge dose 4 (day 7.25), 30 min
[27] = tolerance development, dose 1 (day 1), s.c. BID (morphine 5.0, DPI-125 1.0 mg/kg), 20 minutes post-drug
[28] = tolerance development, dose 1 (day 1), s.c. BID (morphine 5.0, DPI-125 1.0 mg/kg), 30 minutes post-drug
[29] = tolerance development, dose 2 (day 1.25), s.c. BID, 20 minutes post-drug
[30] = tolerance development, dose 2 (day 1.25), s.c. BID, 30 minutes post-drug
[31] = tolerance development, dose 3 (day 2), s.c. BID, 20 minutes post-drug
[32] = tolerance development, dose 3 (day 2), s.c. BID, 30 minutes post-drug
[33] = tolerance development, dose 4 (day 2.25), s.c. BID, 20 minutes post-drug
[34] = tolerance development, dose 4 (day 2.25), s.c. BID, 30 minutes post-drug
[35] = tolerance development, dose 5 (day 3), s.c. BID, 20 minutes post-drug
[36] = tolerance development, dose 5 (day 3), s.c. BID, 30 minutes post-drug
[37] = tolerance development, dose 6 (day 3.25), s.c. BID, 20 minutes post-drug
[38] = tolerance development, dose 6 (day 3.25), s.c. BID, 30 minutes post-drug
[39] = tolerance development, dose 7 (day 4), s.c. BID, 20 minutes post-drug
[40] = tolerance development, dose 7 (day 4), s.c. BID, 30 minutes post-drug
[41] = tolerance development, dose 8 (day 4.25), s.c. BID, 20 minutes post-drug
[42] = tolerance development, dose 8 (day 4.25), s.c. BID, 30 minutes post-drug
[43] = tolerance development, dose 9 (day 5), s.c. BID, 20 minutes post-drug
[44] = tolerance development, dose 9 (day 5), s.c. BID, 30 minutes post-drug
[45] = tolerance development, dose 10 (day 5.25), s.c. BID, 20 minutes post-drug
[46] = tolerance development, dose 10 (day 5.25), s.c. BID, 30 minutes post-drug
[47] = DPI-125 tolerant versus naive animals

T1 sequence (P32300 whole entry): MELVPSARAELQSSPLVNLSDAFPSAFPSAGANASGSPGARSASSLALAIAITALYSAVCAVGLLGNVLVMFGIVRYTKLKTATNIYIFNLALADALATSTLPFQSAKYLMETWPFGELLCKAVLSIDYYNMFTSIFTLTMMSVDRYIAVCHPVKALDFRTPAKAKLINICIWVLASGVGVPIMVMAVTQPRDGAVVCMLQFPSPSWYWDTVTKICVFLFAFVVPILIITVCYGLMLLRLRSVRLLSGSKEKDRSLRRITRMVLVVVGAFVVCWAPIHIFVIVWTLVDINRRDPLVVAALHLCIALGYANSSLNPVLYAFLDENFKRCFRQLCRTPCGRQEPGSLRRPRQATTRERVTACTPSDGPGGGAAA
T2 sequence (P32300 whole entry): as above

C=CCN1C[C@H](C)N([C@H](c2ccsc2)c2cccc(O)c2)C[C@H]1C [DPI-125, (−)3-((S)-((2S,5R)-4-allyl-2,5-dimethyl-1-piperazinyl)(3-thienyl)methyl)phenol]
Analgesic ED50 Tail Pinch [1]: 0.050 mg/kg
analgesic potency relative to morphine [1]: > 40 ×
antinociceptive potency relative to morphine [1]: 47 times
emesis ([2]; even at the highest doses given): did not occur
flushing, reddened mucous membranes or urticaria ([2]; in vivo): did not produce any
seizure activity / seizure liability ([3]; EEG, first in human trial): no seizure activity was noted; also recorded: does not have seizure liability
dysphoria as a side effect ([3]; first in human trial): nor does it exhibit dysphoria
corrected QT intervals [3, 10]: No time- or dose-related trends
deaths or serious AEs [3, 10]: no deaths or any other serious AEs reported
most common drug-related AEs [3, 10]: somnolence, dizziness, and paraesthesia
tolerability [3, 10]: well tolerated
Mean MPE [4, 11]: 3.51%
Mean MPE [4, 12]: 8.77%
Mean MPE [4, 13]: 22.82%
Mean MPE [4, 14]: 7.90%
Mean MPE [4, 15]: 9.65%
Mean MPE [4, 16]: 2.63%
Mean MPE [4, 17]: 1.8±1.8% and 1.76%
Mean MPE [4, 18]: 0.88%
MPE on Day 1 [4]: 100%
time to maximal/complete tolerance [4]: 8 days
Mean MPE [4, 19]: 80.7±15.2% and 80.7%
Mean MPE [4, 20]: 64.9%
Mean MPE [4, 21]: 81.6±12.6% and 81.6%
Mean MPE [4, 22]: 42.1%
Mean MPE [4, 23]: 50.9%
Mean MPE [4, 24]: 57.0%
Mean MPE [4, 25]: 30.7%
Mean MPE [4, 26]: 26.3%
Mean MPE [4, 27]: 100.0%
Mean MPE [4, 28]: 100.0%
Mean MPE [4, 29]: 100.0%
Mean MPE [4, 30]: 100.0%
Mean MPE [4, 31]: 99.1%
Mean MPE [4, 32]: 100.0%
Mean MPE [4, 33]: 79.8%
Mean MPE [4, 34]: 88.2%
Mean MPE [4, 35]: 84.7±10.0% and 84.7%
Mean MPE [4, 36]: 66.7±10.9% and 66.7%
Mean MPE [4, 37]: 81.1%
Mean MPE [4, 38]: 69.7%
Mean MPE [4, 39]: 70.6±12.3% and 70.6%
Mean MPE [4, 40]: 72.8%
Mean MPE [4, 41]: 75.0%
Mean MPE [4, 42]: 51.3%
Mean MPE [4, 43]: 75.9±9.5% and 75.9%
Mean MPE [4, 44]: 40.8±11.2% and 40.8%
Mean MPE [4, 45]: 47.4±11.9% and 47.4%
Mean MPE [4, 46]: 28.5±9.3% and 28.5%
Mean MPE ([4]; tolerance development, dose 11 (day 6), s.c. BID, 20 minutes post-drug): 34.2±12.5% and 34.2%
Mean MPE ([4]; tolerance development, dose 11 (day 6), s.c. BID, 30 minutes post-drug): 21.1%
Mean MPE ([4]; tolerance development, dose 12 (day 6.25), s.c. BID, 20 minutes post-drug): 37.7±12.7% and 37.7%
Mean MPE ([4]; tolerance development, dose 12 (day 6.25), s.c. BID, 30 minutes post-drug): 11.8±7.9% and 11.8%
antinociceptive effect / tolerance in DPI-125 tolerant animals [4]: no antinociceptive effects
antinociceptive effect / tolerance in morphine tolerant animals [4]: only partially tolerant; also recorded: significant antinociceptive effects
antinociceptive ED50 ([5]; DPI-125 tolerant animals): 1.218 mg/kg
Fold Change of ED50 [5, 47]: 2.99 fold and 3.0 fold
ED50 ([5]; DPI-125 tolerant animals): 1.22 mg/kg
ED50 ([5]; morphine tolerant animals): 0.72 mg/kg
ED50 ([5]; naive animals): 0.41 mg/kg
potency in morphine tolerant animals relative to DPI-125 tolerant animals ([5]; more potent in morphine tolerant): 1.7 fold
antinociceptive ED50 ([5]; morphine tolerant animals): 0.717 mg/kg
antinociceptive ED50 ([5]; naive animals): 0.407 mg/kg
delta-opioid agonist activity [6]: acts as a delta-opioid agonist
delta receptor agonist activity [7]: an agonist at the delta receptor
Therapeutic Ratio [8]: 14.4
therapeutic index relative to morphine [8]: approximately 7 ×
ED50 [9]: 0.72 mg/kg

CN1CC[C@]23c4c5ccc(O)c4O[C@H]2[C@@H](O)C=C[C@H]3[C@H]1C5 [Morphine, morphine, reference compound]
Analgesic ED50 Tail Pinch [1]: 2.01 mg/kg
Mean MPE [4, 11]: 2.63%
Mean MPE [4, 12]: 1.76%
Mean MPE [4, 13]: 0.00%
Mean MPE [4, 14]: 1.75%
Mean MPE [4, 15]: 3.51%
Mean MPE [4, 16]: 0.00%
Mean MPE [4, 17]: 0.88%
Mean MPE [4, 18]: 0.00%
MPE on Day 1 [4]: 100%
time to maximal/complete tolerance [4]: 5 days
Mean MPE [4, 19]: 4.4%
Mean MPE [4, 20]: 4.4%
Mean MPE [4, 21]: 0.9%
Mean MPE [4, 22]: 2.6%
Mean MPE [4, 23]: 0.0%
Mean MPE [4, 24]: 0.9%
Mean MPE [4, 25]: 2.6%
Mean MPE [4, 26]: 1.8%
Mean MPE [4, 27]: 100.0%
Mean MPE [4, 28]: 100.0%
Mean MPE [4, 29]: 100.0%
Mean MPE [4, 30]: 100.0%
Mean MPE [4, 31]: 78.9%
Mean MPE ([4]; tolerance development, dose 3 (day 2), s.c. BID, 20 minutes post-drug, listed as morphine sulfate): 78.9±7.9%
Mean MPE [4, 32]: 75.9%
Mean MPE ([4]; tolerance development, dose 3 (day 2), s.c. BID, 30 minutes post-drug, listed as morphine sulfate): 78.9±8.6%
Mean MPE [4, 33]: 56.6%
Mean MPE [4, 34]: 57.9%
Mean MPE [4, 35]: 33.8%
Mean MPE [4, 36]: 46.5%
Mean MPE [4, 37]: 32.9%
Mean MPE [4, 38]: 24.1%
Mean MPE [4, 39]: 23.7%
Mean MPE [4, 40]: 20.6%
Mean MPE [4, 41]: 7.0%
Mean MPE ([4]; tolerance development, dose 8 (day 4.25), s.c. BID, 20 minutes post-drug, listed as morphine sulfate): 7.0±2.8%
Mean MPE [4, 42]: 5.7%
Mean MPE ([4]; tolerance development, dose 8 (day 4.25), s.c. BID, 30 minutes post-drug, listed as morphine sulfate): 5.7±1.8%
Mean MPE [4, 43]: 3.1%
Mean MPE ([4]; tolerance development, dose 9 (day 5), s.c. BID, 20 minutes post-drug, listed as morphine sulfate): 3.1±1.2%
Mean MPE [4, 44]: 2.2%
Mean MPE ([4]; tolerance development, dose 9 (day 5), s.c. BID, 30 minutes post-drug, listed as morphine sulfate): 2.2±1.0%
Mean MPE [4, 45]: 5.3%
Mean MPE [4, 46]: 3.9%
antinociceptive effect / tolerance in DPI-125 tolerant animals [4]: complete tolerance
antinociceptive effect / tolerance in DPI-125 tolerant animals ([4]; listed as morphine sulfate): no antinociceptive effects
antinociceptive effect / tolerance in morphine tolerant animals [4]: no antinociceptive effects
Fold Change of ED50 [5, 47]: 7.8 fold
ED50 ([5]; DPI-125 tolerant animals): 15.8 mg/kg
ED50 ([5]; morphine tolerant animals): 11.3 mg/kg
ED50 ([5]; naive animals): 2.04 mg/kg
Fold Change of ED50 ([5]; morphine tolerant versus naive animals): 5.5 fold
antinociceptive ED50 ([5]; naive animals): 2.037 mg/kg
Therapeutic Ratio [8]: 2.1
ED50 [9]: 4.23 mg/kg
